Experimental findings from patent US20250282825A1, “NOVEL CYCLIC COMPOUNDS, METHOD FOR THEIR PREPARATION AND THE USE OF SAID CYCLIC COMPOUNDS IN COSMETIC PREPARATIONS” (priority 2020, published 2025) are described below.

Data set [1] deals with S. aureus N315 LugIEFGH. Type of data set: cell-based, Staphylococcus aureus. The note with it: for recognized and transported by the lugdunin transporters LugIEFGH: derived from MIC ratio, FIG. 5.
Data set [2] has as its system SARS-CoV-2.
Data set [3] deals with human primary keratinocytes. Nature of the data set: WST-1 assay (cell viability/cytotoxicity). Type of data set: cell-based. The note with it: 3.1 μg/ml, 6 h, 37° C., keratinocytes from three donors, versus DMSO solvent control.
Protocol: To determine possible cytotoxicity, a WST-1 assay was first performed using human primary keratinocytes from three different donors according to the manufacturer's instructions. The colorimetric assay measures cell viability of cells and can therefore be used to determine cytotoxic compounds incubated with the cells. The greater the number of viable cells, the higher the activity of mitochondrial dehydrogenases and the greater the amount of dye formed in the assay. […] Cell culture supernatants were then removed, and WST1 reagent was added to the keratinocytes. […] DMSO served as a negative control (solvent control).
For data set [4], the system named is human primary keratinocytes. Nature of the data set: LDH assay (lactate dehydrogenase release). Type of data set: cell-based. The following applies: 3.1 μg/ml, 24 h, 37° C., keratinocytes from three donors, relative to Triton-X (100%).
Protocol: To verify the results, an LDH assay was performed using human primary keratinocytes from three different donors according to the manufacturer's instructions. This assay is based on the detection of the enzyme lactate dehydrogenase, which is released into the cell culture medium when the cell membrane is damaged, where it can then be detected. […] Subsequently, 50 μl of each cell culture supernatant was transferred to a 96well plate, mixed with 50 μl of LDH reagent and measured (according to manufacturer's instructions). […] DMSO served as a negative control (solvent control).

For the molecule `CC(C)C[C@H]1NC(=O)[C@H](Cc2c[nH]c3ccccc23)NC(=O)[C@@H](C(C)C)NC(=O)[C@H]2NC(SC2(C)C)[C@H](C(C)C)NC(=O)[C@@H](C(C)C)NC(=O)[C@H](C(C)C)NC1=O` [I.1], in data set [1] (conclusion from MIC ratio), the formation of resistance result was “no formation of resistance is to be expected”. For the same molecule, the “recognized and transported by the lugdunin transporters LugIEFGH” value in data set [1] was “neither I.1 nor CCCP, is recognized and transported”. Moreover, in data set [1] (ratio close to 1 = no resistance increase by the transporters, lugdunin value is the median), the “MIC ratio MIC(S. aureus LugIEFGH)/MIC(S. aureus Wt)” value is 1.064.

Turning to “carbonyl cyanide-3-chrlophenylhydrazone [CCCP, reference compound]”, the “recognized and transported by the lugdunin transporters LugIEFGH” value in data set [1] is “neither I.1 nor CCCP, is recognized and transported”.

With `CC(C)C[C@H]1NC(=O)[C@H](Cc2c[nH]c3ccccc23)NC(=O)[C@@H](C(C)C)NC(=O)[C@H]2NC(SC2(C)C)[C@H](C(C)C)NC(=O)[C@@H](Cc2c[nH]c3ccccc23)NC(=O)[C@H](C(C)C)NC1=O` [I.3], the virus inhibition entry in data set [2] (A549 cells, SARS-CoV-2 MOI=1.0, concentration 3.7 μM) is given as “about 80%”. In data set [2] (higher antiviral activity than lugdunin, from EC50 values), the “antiviral activity relative to lugdunin” value is given as “approximately 9 fold”. For the same molecule, the EC50 in data set [2] (read-out: EC50 (SARS-CoV-2 antiviral activity), A549 cells, SARS-CoV-2 MOI=1.0) amounted to 2.23 µM. Also, the “cytotoxic effect in WST-1 assay” value in data set [3] is “no such cytotoxic effect”. The “cytotoxic effect in LDH assay” value in data set [4] is listed as “no significant cytotoxic effect”.

One may read the EC50 as the concentration giving half of the maximal effect.
